Publication PMC10779433, “Bidirectional Allosteric Coupling between PIP2 Binding and the Pore of the Oncochannel TRPV6” (International Journal of Molecular Sciences, 2024)
Residues, ends and D or L forms follow the SMILES beside them. *: point of attachment. Palmitoyl = CCCCCCCCCCCCCCCC(=O)*

Columns and labels:
[1] = tested on: TRPV6 G488R; experiment: Fura-2 Ca2+ imaging, TRPV6 G488R; format: cell-based, human; details: HEK293 cells; 20 μM pal-PIP2 peptide; 2 mM Ca2+; Figure 2A
[2] = tested on: TRPV6 K484A; experiment: Whole-cell patch clamp, TRPV6 K484A; format: cell-based, human; details: HEK293 cells; 10 μM pal-PIP2 peptide; p < 0.05; Figure 4D
Text: (§1) N-terminally TagRFP-labeled human TRPV6 (725 aa) was kindly provided by R. Bhardwaj and M. Hediger (University of Bern, Bern, Switzerland). This variant is translated from the first ATG codon and thus deviates from the non-ATG-initiated protein which is expressed in vivo (accession number NM_018646.6) by lacking 40 amino acids of the very N-terminus. For N-terminal labeling with EYFP, TRPV6 was cloned into pEYFP-C1 (Clontech) via EcoRI and SacII restriction sites. Mutations (F468A, R470A, F472A, K484A/Q, G488R, R492A/Q, I575A, G579A, D580A/K, H582A, W583A/F, H587A, R589A, W593A, R632A/Q, R470A, W583F) were introduced using the QuickChange XL site-directed mutagenesis kit (Stratagene, San Diego, CA, USA) and Pfu DNA Polymerase (Promega, Madison, WI, USA). pTagRFP-hTRPV6 I575A was kindly provided by the lab of M. Hediger (University of Bern, Bern, Switzerland). Forward and reverse primers for site-directed mutagenesis were synthesized by Eurofins genomics GmbH (Wien, Vienna, Austria). Intactness of the constructs in terms of sequence was confirmed by sequencing (Microsynth Austria GmbH, Wien, Vienna, Austria; Eurofins genomics GmbH, Wien, Vienna, Austria). […]
(§2) Electrophysiological experiments were performed at 20 °C to 24 °C in whole-cell recording configurations of the patch clamp technique. […] The liquid junction potential was determined as 12 mV; the voltages were not adjusted. […]

[3] = tested on: TRPV6 I575A; experiment: Whole-cell patch clamp, TRPV6 I575A; format: cell-based, human; details: HEK293 cells, 10 μM pal-PIP2 peptide, Figure 5C (substitution reduces the inhibition)
Text: as §1, §2

[4] = tested on: TRPV6 D580K; experiment: Whole-cell patch clamp, TRPV6 D580K; format: cell-based, human; details: HEK293 cells, 10 μM pal-PIP2 peptide, Figure 5C (substitution reduces the inhibition)
Text: as §1, §2

[5] = tested on: TRPV6 W583F; experiment: Whole-cell patch clamp, TRPV6 W583F; format: cell-based, human; details: HEK293 cells, 10 μM pal-PIP2 peptide, Figure 5C
Text: as §1, §2

[6] = tested on: TRPV6 R470A; experiment: NFAT screen, TRPV6 R470A; format: cell-based, human; details: HEK293 cells; 5 μM cis-22a, 2 h, vs DMSO
Experimental: (§3) N-terminally TagRFP-labeled human TRPV6 (725 aa) was kindly provided by R. Bhardwaj and M. Hediger (University of Bern, Bern, Switzerland). This variant is translated from the first ATG codon and thus deviates from the non-ATG-initiated protein which is expressed in vivo (accession number NM_018646.6) by lacking 40 amino acids of the very N-terminus. For N-terminal labeling with EYFP, TRPV6 was cloned into pEYFP-C1 (Clontech) via EcoRI and SacII restriction sites. […]
(§4) After incubation, cover slips were carefully rinsed with phenol red-free DMEM supplemented with the compound and dosage corresponding to the previous incubation, which was then also present during imaging. […] Subcellular NFAT localization of TRPV6 expressing cells was again monitored on an Axiovert 135 inverted microscope (Zeiss, Oberkochen, Germany), as described in more detail before. […] Images were analyzed using Matlab2018a, differentiating between three cell populations based on the ratio of CFP emission intensity originating from the nucleus and the cytosol, similar to Schober et al. (2019).

[7] = tested on: TRPV6 K484A; experiment: NFAT screen, TRPV6 K484A; format: cell-based, human; details: HEK293 cells; 5 μM cis-22a, 2 h, vs DMSO
Experimental: as §3, §4

[8] = tested on: TRPV6 R492A; experiment: NFAT screen, TRPV6 R492A; format: cell-based, human; details: HEK293 cells; 5 μM cis-22a, 2 h; nuclear NFAT already reduced without cis-22a
Experimental: as §3, §4

[9] = tested on: TRPV6 W583F; experiment: NFAT screen, TRPV6 W583F; format: cell-based, human; details: HEK293 cells; 5 μM cis-22a, 2 h, vs DMSO
Experimental: as §3, §4

[10] = tested on: TRPV6 R589A; experiment: NFAT screen, TRPV6 R589A; format: cell-based, human; details: HEK293 cells; 5 μM cis-22a, 2 h; same for solvent control
Experimental: as §3, §4

[11] = tested on: TRPV6 D580K; parameters: method as in PMID 33246965; details: HEK293 cells; 0.1 μM and 10 μM cis-22a; Figure 5B; ref [47]; cited from earlier work

Row | Compound | reduction of intracellular Ca2+ level [1] | sensitivity to peptide-based PIP2 sequestration vs WT [2] | inhibitory effect of pal-PIP2 peptide vs WT [3] | inhibitory effect of pal-PIP2 peptide vs WT [4] | sensitivity to peptide-based PIP2 sequestration vs WT [5] | reduction of nuclear NFAT localization [6] | reduction of nuclear NFAT localization [7] | reduction of nuclear NFAT localization [8] | change of nuclear NFAT localization [9] | nuclear targeting of NFAT [10] | response to cis-22a vs TRPV6 WT [11]
1 | CCCCCCCCCCCCCCCC(=O)N[C@@H](Cc1c[nH]cn1)C(=O)N[C@@H](CCCNC(=N)N)C(=O)N[C@@H](CCC(N)=O)C(=O)N[C@@H](CCCCN)C(=O)N[C@@H](Cc1c[nH]cn1)C(=O)N[C@@H](Cc1ccccc1)C(=O)N[C@@H](CCC(=O)O)C(=O)N[C@@H](CCCCN)C(=O)N[C@@H](CCCNC(=N)N)C(=O)N[C@@H](CCCNC(=N)N)C(N)=O [pal-PIP2 peptide] (Palmitoyl-HRQKHFEKRR-NH2) | ~ 2% | significantly reduced sensitivity | interfered with the inhibitory effect of the pal-PIP2 peptide | interfered with the inhibitory effect of the pal-PIP2 peptide | not changed compared to the wildtype control | – | – | – | – | – | –
2 | Cc1cccc(C2CCC(N3CCN(c4cccnc4)CC3)CC2)c1.O=C(O)C(F)(F)F (stereo not drawn) [cis-22a] | – | – | – | – | – | failed to significantly reduce NFAT nuclear localization | failed to significantly reduce NFAT nuclear localization | further significant reduction in nucleus-targeted NFAT | not significantly changed | almost absent | significantly reduced response
